Laboratory results as given in patent US20080125395A1, “COMPOSITIONS AND METHODS FOR THE TREATMENT OF SKIN” (priority 1999, published 2008).

Tested on: rosacea
Assay: topical treatment of rosacea in human subjects (case reports)
Assay type: in vivo
Conditions: long-term use by subjects with facial rosacea
Text: A second subject was a person who suffered from disfiguring rosacea on their face for 14 years. […] After failure of the cortisone treatment to provide adequate relief, the subject used an ascorbic acid, zinc sulfate and tyrosine formulation once a day. The ascorbic acid composition provided slight relief, but the subject's rosacea never cleared up adequately. The subject then used the same ascorbic acid formulation to which 20% (w/v) glucosamine had been added.
FIG. 4 provides an exemplary depiction of the cosmetic and therapeutic benefits of the present invention. A subject used an embodiment of the present invention containing glucosamine for one week. Before using the embodiment (panel A), the subject suffered from disfiguring rosacea blemishes on their face. […] In one week, the size of blemishes has decreased and the intensity of the rosacea has abated, although some scarring (resulting from years of severe inflammatory lesions that had not responded to previous treatments) remains.

## C[C@]12CCC(=O)C=C1CC[C@@H]1[C@@H]2[C@@H](O)C[C@@]2(C)[C@H]1CC[C@]2(O)C(=O)CO [hydrocortisone]
  control of rosacea inflammation: partially control
